# Reference: ChEMBL document CHEMBL4507301 (2021)
# Experiments:
# [1] = target: Protein kinase C theta type (Homo sapiens) (UniProt Q04759); conditions: Compound concentration 1000.0 nM
# [2] = target: cGMP-dependent protein kinase 1 (Homo sapiens) (UniProt Q13976); conditions: Compound concentration 1000.0 nM
# [3] = target: Cyclin-dependent kinase-like 2 (Homo sapiens) (UniProt Q92772); conditions: Compound concentration 1000.0 nM
# [4] = system: Phosphatidylinositol 4,5-bisphosphate 3-kinase catalytic subunit alpha isoform (Homo sapiens), P42336 [H1047L]; conditions: Compound concentration 1000.0 nM
# [5] = target: Sodium-dependent serotonin transporter (Homo sapiens) (UniProt P31645); conditions: Compound concentration 10.0 uM
# [6] = target: Serine/threonine-protein kinase BRSK1 (Homo sapiens) (UniProt Q8TDC3); conditions: Compound concentration 1000.0 nM
# Sequence of Serine/threonine-protein kinase BRSK1 (Homo sapiens) (Q8TDC3 whole entry): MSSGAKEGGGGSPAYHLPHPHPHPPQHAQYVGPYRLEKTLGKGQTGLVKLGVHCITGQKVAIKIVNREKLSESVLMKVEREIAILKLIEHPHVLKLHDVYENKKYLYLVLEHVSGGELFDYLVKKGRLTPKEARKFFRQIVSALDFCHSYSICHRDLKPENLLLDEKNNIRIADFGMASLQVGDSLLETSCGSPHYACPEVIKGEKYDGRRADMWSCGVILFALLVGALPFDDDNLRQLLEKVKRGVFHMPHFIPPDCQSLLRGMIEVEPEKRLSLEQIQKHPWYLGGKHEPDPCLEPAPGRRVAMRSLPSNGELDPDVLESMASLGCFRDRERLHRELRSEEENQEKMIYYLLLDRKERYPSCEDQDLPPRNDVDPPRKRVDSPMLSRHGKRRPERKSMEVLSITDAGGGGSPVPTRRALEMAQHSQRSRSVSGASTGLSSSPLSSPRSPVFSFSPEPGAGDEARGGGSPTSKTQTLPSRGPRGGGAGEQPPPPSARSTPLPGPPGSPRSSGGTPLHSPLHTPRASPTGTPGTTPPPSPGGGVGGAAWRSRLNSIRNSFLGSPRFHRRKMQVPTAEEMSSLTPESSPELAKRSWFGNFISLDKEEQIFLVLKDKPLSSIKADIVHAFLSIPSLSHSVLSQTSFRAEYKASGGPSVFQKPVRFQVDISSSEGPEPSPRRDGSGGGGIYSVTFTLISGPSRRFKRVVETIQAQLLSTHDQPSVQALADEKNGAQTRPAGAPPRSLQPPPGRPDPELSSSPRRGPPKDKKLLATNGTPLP
# [7] = target: Serine/threonine-protein kinase Nek7 (Homo sapiens) (UniProt Q8TDX7); conditions: Compound concentration 1000.0 nM
# [8] = target: Calcium/calmodulin-dependent protein kinase type IV (Homo sapiens) (UniProt Q16566); conditions: Compound concentration 1000.0 nM
# [9] = target: Mitogen-activated protein kinase kinase kinase 14 (Homo sapiens) (UniProt Q99558); conditions: Compound concentration 1000.0 nM
# [10] = system: Proto-oncogene tyrosine-protein kinase receptor Ret (Homo sapiens), P07949 [M918T]; conditions: Compound concentration 1000.0 nM
# [11] = target: Protein kinase C epsilon type (Homo sapiens) (UniProt Q02156); conditions: Compound concentration 1000.0 nM
# [12] = target: Death-associated protein kinase 2 (Homo sapiens) (UniProt Q9UIK4); conditions: Compound concentration 1000.0 nM
# [13] = target: Serine/threonine-protein kinase DCLK1 (Homo sapiens) (UniProt O15075); conditions: Compound concentration 1000.0 nM
# [14] = target: Bone morphogenetic protein receptor type-1B (Homo sapiens) (UniProt O00238); conditions: Compound concentration 1000.0 nM
# [15] = target: Macrophage colony-stimulating factor 1 receptor (Homo sapiens) (UniProt P07333); conditions: Compound concentration 1000.0 nM
# Sequence of Macrophage colony-stimulating factor 1 receptor (Homo sapiens) (P07333 whole entry): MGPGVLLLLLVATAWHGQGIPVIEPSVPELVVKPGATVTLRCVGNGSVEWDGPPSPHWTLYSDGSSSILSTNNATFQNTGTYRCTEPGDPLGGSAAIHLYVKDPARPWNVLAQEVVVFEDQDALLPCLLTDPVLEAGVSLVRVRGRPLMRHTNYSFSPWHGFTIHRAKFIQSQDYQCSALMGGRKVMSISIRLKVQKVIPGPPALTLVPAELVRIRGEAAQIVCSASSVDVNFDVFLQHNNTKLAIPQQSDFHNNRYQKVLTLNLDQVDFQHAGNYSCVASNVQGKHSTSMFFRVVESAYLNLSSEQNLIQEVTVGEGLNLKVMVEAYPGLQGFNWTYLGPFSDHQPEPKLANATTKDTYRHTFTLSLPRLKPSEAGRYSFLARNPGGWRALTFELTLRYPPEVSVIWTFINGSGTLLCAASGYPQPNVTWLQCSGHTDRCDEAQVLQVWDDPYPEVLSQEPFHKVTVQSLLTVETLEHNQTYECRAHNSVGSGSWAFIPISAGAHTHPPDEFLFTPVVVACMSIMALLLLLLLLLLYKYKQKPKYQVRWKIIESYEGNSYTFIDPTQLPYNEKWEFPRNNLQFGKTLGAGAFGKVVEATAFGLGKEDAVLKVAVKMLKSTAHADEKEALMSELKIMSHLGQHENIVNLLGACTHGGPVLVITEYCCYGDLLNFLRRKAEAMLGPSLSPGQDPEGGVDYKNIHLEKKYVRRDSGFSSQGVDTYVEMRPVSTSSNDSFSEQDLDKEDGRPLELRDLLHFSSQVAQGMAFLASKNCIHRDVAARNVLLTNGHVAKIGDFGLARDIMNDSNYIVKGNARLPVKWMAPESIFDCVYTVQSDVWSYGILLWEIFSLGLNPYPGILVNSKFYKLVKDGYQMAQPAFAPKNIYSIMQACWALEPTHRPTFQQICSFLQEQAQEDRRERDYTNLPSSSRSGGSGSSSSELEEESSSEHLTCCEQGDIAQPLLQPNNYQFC
# [16] = target: Serine/threonine-protein kinase PLK3 (Homo sapiens) (UniProt Q9H4B4); conditions: Compound concentration 1000.0 nM
# [17] = target: Mitogen-activated protein kinase 13 (Homo sapiens) (UniProt O15264); conditions: Compound concentration 1000.0 nM
# [18] = target: Receptor-type tyrosine-protein kinase FLT3 (Homo sapiens) (UniProt P36888); conditions: Compound concentration 1000.0 nM
# [19] = system: Tyrosine-protein kinase ABL1 (Homo sapiens), P00519 [H396P]; conditions: Compound concentration 1000.0 nM
# [20] = target: Homeodomain-interacting protein kinase 3 (Homo sapiens) (UniProt Q9H422); conditions: Compound concentration 1000.0 nM
# [21] = target: D(4) dopamine receptor (Homo sapiens) (UniProt P21917); conditions: Compound concentration 10.0 uM
# Sequence of D(4) dopamine receptor (Homo sapiens) (P21917 whole entry): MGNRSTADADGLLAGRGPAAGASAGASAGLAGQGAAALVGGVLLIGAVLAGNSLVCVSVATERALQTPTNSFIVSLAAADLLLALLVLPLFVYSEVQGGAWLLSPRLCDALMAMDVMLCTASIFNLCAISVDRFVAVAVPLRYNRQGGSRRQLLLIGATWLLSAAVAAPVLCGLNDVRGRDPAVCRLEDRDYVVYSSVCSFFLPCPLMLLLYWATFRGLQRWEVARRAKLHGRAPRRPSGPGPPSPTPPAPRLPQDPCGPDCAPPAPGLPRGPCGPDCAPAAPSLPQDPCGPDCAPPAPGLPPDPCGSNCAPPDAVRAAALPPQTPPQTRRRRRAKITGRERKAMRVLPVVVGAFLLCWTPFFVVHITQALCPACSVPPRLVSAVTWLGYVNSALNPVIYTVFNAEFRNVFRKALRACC
# [22] = target: Receptor-interacting serine/threonine-protein kinase 2 (Homo sapiens) (UniProt O43353); conditions: Compound concentration 1000.0 nM
# [23] = system: Epidermal growth factor receptor (Homo sapiens), P00533 [G719C]; conditions: Compound concentration 1000.0 nM
# [24] = target: cAMP-dependent protein kinase catalytic subunit PRKX (Homo sapiens) (UniProt P51817); conditions: Compound concentration 1000.0 nM
# [25] = target: Mitogen-activated protein kinase kinase kinase 4 (Homo sapiens) (UniProt Q9Y6R4); conditions: Compound concentration 1000.0 nM
# [26] = target: Histamine H1 receptor (Homo sapiens) (UniProt P35367); conditions: Compound concentration 10.0 uM
# [27] = target: Serine/threonine-protein kinase MRCK alpha (Homo sapiens) (UniProt Q5VT25); conditions: Compound concentration 1000.0 nM
# [28] = target: Serine/threonine-protein kinase SBK1 (Homo sapiens) (UniProt Q52WX2); conditions: Compound concentration 1000.0 nM
# [29] = target: Serine/threonine-protein kinase tousled-like 1 (Homo sapiens) (UniProt Q9UKI8); conditions: Compound concentration 1000.0 nM
# [30] = system: Epidermal growth factor receptor (Homo sapiens), P00533 [L861Q]; conditions: Compound concentration 1000.0 nM
# [31] = target: Tyrosine-protein kinase Blk (Homo sapiens) (UniProt P51451); conditions: Compound concentration 1000.0 nM
# [32] = target: SNF-related serine/threonine-protein kinase (Homo sapiens) (UniProt Q9NRH2); conditions: Compound concentration 1000.0 nM
# Sequence of SNF-related serine/threonine-protein kinase (Homo sapiens) (Q9NRH2 whole entry): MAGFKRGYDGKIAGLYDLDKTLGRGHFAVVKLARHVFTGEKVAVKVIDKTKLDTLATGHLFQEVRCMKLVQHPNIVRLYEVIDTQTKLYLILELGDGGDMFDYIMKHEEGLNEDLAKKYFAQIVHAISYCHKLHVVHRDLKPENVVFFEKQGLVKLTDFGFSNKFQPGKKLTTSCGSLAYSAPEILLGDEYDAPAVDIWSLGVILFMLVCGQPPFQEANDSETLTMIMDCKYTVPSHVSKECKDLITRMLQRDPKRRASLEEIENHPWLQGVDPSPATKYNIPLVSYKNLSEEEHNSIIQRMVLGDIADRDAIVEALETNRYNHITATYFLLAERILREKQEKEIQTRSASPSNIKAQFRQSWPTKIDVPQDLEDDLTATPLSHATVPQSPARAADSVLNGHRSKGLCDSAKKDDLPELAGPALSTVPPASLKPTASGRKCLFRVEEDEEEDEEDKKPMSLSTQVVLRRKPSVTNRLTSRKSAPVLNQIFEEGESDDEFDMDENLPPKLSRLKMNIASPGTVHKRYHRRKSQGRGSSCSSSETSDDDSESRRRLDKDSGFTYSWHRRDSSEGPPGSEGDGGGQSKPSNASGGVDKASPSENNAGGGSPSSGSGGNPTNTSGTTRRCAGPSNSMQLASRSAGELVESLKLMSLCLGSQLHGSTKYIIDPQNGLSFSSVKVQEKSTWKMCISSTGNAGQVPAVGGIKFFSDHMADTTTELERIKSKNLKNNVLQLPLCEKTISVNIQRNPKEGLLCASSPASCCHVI
# [33] = target: Tyrosine-protein kinase ABL1 (Homo sapiens) (UniProt P00519); conditions: Compound concentration 1000.0 nM
# [34] = target: Cyclin-dependent kinase 13 (Homo sapiens) (UniProt Q14004); conditions: Compound concentration 1000.0 nM
# Sequence of Cyclin-dependent kinase 13 (Homo sapiens) (Q14004 whole entry, looked up): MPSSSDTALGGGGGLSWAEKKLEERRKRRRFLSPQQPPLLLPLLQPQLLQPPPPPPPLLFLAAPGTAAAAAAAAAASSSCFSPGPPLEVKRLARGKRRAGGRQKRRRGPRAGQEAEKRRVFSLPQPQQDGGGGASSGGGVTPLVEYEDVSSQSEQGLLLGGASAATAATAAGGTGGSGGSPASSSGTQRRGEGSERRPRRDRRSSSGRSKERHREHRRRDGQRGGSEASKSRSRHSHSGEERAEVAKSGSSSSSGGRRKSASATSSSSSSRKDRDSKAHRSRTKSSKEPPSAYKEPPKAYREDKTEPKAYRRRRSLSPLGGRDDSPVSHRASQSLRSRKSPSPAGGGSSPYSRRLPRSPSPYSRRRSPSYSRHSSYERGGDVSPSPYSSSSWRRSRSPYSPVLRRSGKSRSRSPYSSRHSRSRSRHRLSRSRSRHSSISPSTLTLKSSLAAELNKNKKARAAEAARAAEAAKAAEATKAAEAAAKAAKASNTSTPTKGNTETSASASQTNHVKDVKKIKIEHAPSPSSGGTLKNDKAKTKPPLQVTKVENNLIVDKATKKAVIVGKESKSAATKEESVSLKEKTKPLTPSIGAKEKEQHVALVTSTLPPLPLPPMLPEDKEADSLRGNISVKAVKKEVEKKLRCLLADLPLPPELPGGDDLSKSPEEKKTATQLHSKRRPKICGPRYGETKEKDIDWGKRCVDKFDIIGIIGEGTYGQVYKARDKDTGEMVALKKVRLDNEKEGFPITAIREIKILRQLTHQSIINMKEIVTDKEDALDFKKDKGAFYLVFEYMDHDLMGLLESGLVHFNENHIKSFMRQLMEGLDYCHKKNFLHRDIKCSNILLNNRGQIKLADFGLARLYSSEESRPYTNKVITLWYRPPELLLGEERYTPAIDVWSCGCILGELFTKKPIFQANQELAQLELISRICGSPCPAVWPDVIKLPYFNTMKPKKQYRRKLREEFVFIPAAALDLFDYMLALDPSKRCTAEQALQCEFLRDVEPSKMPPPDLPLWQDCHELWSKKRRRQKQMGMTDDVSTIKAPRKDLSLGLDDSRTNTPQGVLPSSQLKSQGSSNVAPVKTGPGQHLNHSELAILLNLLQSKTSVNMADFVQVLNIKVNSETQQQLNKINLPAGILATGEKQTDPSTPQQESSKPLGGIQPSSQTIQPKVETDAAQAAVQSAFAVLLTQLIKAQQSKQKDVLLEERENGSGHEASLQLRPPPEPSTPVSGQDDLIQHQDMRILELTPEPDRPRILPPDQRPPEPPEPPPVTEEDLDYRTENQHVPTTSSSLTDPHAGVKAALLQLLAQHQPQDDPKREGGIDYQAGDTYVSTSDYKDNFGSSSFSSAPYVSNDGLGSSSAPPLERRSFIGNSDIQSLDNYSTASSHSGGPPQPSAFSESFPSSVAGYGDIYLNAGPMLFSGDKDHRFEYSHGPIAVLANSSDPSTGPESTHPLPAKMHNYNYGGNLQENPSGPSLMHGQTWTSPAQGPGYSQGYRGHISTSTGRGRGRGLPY
# [35] = target: Wee1-like protein kinase 2 (Homo sapiens) (UniProt P0C1S8); conditions: Compound concentration 1000.0 nM
# [36] = target: Dual specificity protein kinase CLK1 (Homo sapiens) (UniProt P49759); conditions: Compound concentration 1000.0 nM
# [37] = target: Muscarinic acetylcholine receptor M3 (Homo sapiens) (UniProt P20309); conditions: Compound concentration 10.0 uM
# [38] = target: Casein kinase I isoform epsilon (Homo sapiens) (UniProt P49674); conditions: Compound concentration 1000.0 nM
# [39] = target: Tyrosine-protein kinase SYK (Homo sapiens) (UniProt P43405); conditions: Compound concentration 1000.0 nM
# [40] = target: Cyclin-dependent kinase 7 (Homo sapiens) (UniProt P50613); conditions: Compound concentration 1000.0 nM
# [41] = target: Calcium/calmodulin-dependent protein kinase type II subunit alpha (Homo sapiens) (UniProt Q9UQM7); conditions: Compound concentration 1000.0 nM
# Sequence of Calcium/calmodulin-dependent protein kinase type II subunit alpha (Homo sapiens) (Q9UQM7 whole entry, canonical isoform): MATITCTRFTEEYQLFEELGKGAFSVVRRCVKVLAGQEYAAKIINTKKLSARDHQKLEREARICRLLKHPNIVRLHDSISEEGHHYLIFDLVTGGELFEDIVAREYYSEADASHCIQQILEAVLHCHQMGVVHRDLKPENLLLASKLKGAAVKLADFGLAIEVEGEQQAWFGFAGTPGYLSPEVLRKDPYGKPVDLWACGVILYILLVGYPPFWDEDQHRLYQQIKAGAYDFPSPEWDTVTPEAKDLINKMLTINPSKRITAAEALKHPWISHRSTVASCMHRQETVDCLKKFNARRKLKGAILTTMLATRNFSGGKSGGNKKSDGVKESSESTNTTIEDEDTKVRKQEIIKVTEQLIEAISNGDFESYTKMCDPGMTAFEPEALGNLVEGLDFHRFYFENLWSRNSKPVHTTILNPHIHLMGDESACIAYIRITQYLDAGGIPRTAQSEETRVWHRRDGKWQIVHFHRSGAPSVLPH
# [42] = target: Phosphorylase b kinase gamma catalytic chain, skeletal muscle/heart isoform (Homo sapiens) (UniProt Q16816); conditions: Compound concentration 1000.0 nM
# [43] = target: Serine/threonine-protein kinase D3 (Homo sapiens) (UniProt O94806); conditions: Compound concentration 1000.0 nM
# [44] = target: Leukocyte tyrosine kinase receptor (Homo sapiens) (UniProt P29376); conditions: Compound concentration 1000.0 nM
# [45] = target: Dual specificity mitogen-activated protein kinase kinase 2 (Homo sapiens) (UniProt P36507); conditions: Compound concentration 1000.0 nM
compound,measurement,setting,value
C[C@@H](c1cccc(C#N)c1)n1cc(Cl)cc(C(N)=O)c1=N [(S)-9s],residual activity,[1],86%
same,residual activity,[2],100%
same,residual activity,[3],100%
same,residual activity,[4],96%
same,inhibition,[5],14.8%
same,residual activity,[6],93%
same,residual activity,[7],89%
same,residual activity,[8],82%
same,residual activity,[9],93%
same,residual activity,[10],100%
same,residual activity,[11],89%
same,residual activity,[12],100%
same,residual activity,[13],98%
same,residual activity,[14],89%
same,residual activity,[15],100%
same,residual activity,[16],89%
same,residual activity,[17],98%
same,residual activity,[18],92%
same,residual activity,[19],54%
same,residual activity,[20],70%
same,inhibition,[21],10.1%
same,residual activity,[22],88%
same,residual activity,[23],100%
same,residual activity,[24],100%
same,residual activity,[25],71%
same,inhibition,[26],-9.05%
same,residual activity,[27],100%
same,residual activity,[28],99%
same,residual activity,[29],100%
same,residual activity,[30],100%
same,residual activity,[31],85%
same,residual activity,[32],100%
same,residual activity,[33],73%
same,residual activity,[34],100%
same,residual activity,[35],77%
same,residual activity,[36],100%
same,inhibition,[37],-6.17%
same,residual activity,[38],100%
same,residual activity,[39],96%
same,residual activity,[40],81%
same,residual activity,[41],100%
same,residual activity,[42],100%
same,residual activity,[43],100%
same,residual activity,[44],94%
same,residual activity,[45],76%
C[C@H](c1cccc(C#N)c1)n1cc(Cl)cc(C(N)=O)c1=N [(R)-9s],residual activity,[1],97%
same,residual activity,[2],100%
same,residual activity,[3],100%
same,residual activity,[4],92%
same,inhibition,[5],9.99%
same,residual activity,[6],68%
same,residual activity,[7],97%
same,residual activity,[8],90%
same,residual activity,[9],62%
same,residual activity,[10],91%
same,residual activity,[11],87%
same,residual activity,[12],100%
same,residual activity,[13],76%
same,residual activity,[14],94%
same,residual activity,[15],100%
same,residual activity,[16],83%
same,residual activity,[17],100%
same,residual activity,[18],90%
same,residual activity,[19],55%
same,residual activity,[20],81%
same,inhibition,[21],6.56%
same,residual activity,[22],66%
same,residual activity,[23],100%
same,residual activity,[24],100%
same,residual activity,[25],47%
same,inhibition,[26],-6.96%
same,residual activity,[27],100%
same,residual activity,[28],83%
same,residual activity,[29],94%
same,residual activity,[30],100%
same,residual activity,[31],78%
same,residual activity,[32],100%
same,residual activity,[33],77%
same,residual activity,[34],100%
same,residual activity,[35],97%
same,residual activity,[36],100%
same,inhibition,[37],-8.15%
same,residual activity,[38],99%
same,residual activity,[39],100%
same,residual activity,[40],78%
same,residual activity,[41],100%
same,residual activity,[42],100%
same,residual activity,[43],65%
same,residual activity,[44],99%
same,residual activity,[45],80%
